Experimental data as given in ChEMBL document CHEMBL3399925, “Synthesis and antimycobacterial properties of ring-substituted 6-hydroxynaphthalene-2-carboxanilides” (Bioorg Med Chem, 2015).
In brackets after ≈: the same amount, converted by molar mass.

How the values were obtained:
[1] = Lipophilicity, log K of the compound by HPLC method; type: physicochemical
[2] = tested on: Mycobacterium tuberculosis; assay: microbe, parasite or virus in culture; type: functional; settings: H37Ra ATCC 25177, 168 h
Description: Antimycobacterial activity against Mycobacterium tuberculosis H37Ra ATCC 25177 incubated for 7 days by alamar blue assay

[3] = tested on: Mycobacterium avium complex sp.; assay: Antimycobacterial activity against Mycobacterium avium complex isolate CIT19/06 incubated for 5 days by alamar blue assay; type: functional; settings: isolate CIT19/06, 120 h
[4] = tested on: Mycobacterium avium subsp. paratuberculosis; assay: Antimycobacterial activity against Mycobacterium avium subsp. paratuberculosis isolate CIT03 incubated for 11 days by alamar blue assay; type: functional; settings: isolate CIT03, 264 h
THP-1 = assay: Cytotoxicity against human THP1 cells after 24 hrs by WST1 assay; type: cell-based; settings: THP-1, 24 h
[5] = tested on: Mycobacterium tuberculosis; assay: Antimycobacterial activity against Mycobacterium tuberculosis H37Ra ATCC 25177 assessed as cell viability at 8 ug/ml incubated for 7 days by MTT assay; type: functional

Compound | log K [1] | MIC90 [2] [µM] | MIC90 [3] [µM] | MIC90 [4] [µM] | IC50 (THP-1) [µM] | Activity [5] [%]
Cc1ccc(NC(=O)c2ccc3cc(O)ccc3c2)cc1 | 0.6227 | 29 (≈ 8.04 µg/mL) | 451 (≈ 125 µg/mL) | 29 (≈ 8.04 µg/mL) | > 30 | –
NNC(=O)c1ccncc1 [ISONIAZID] | – | 58 (≈ 7.95 µg/mL) | 3650 (≈ 500 µg/mL) | 1820 (≈ 250 µg/mL) | – | –
COc1ccc(NC(=O)c2ccc3cc(O)ccc3c2)cc1 | 0.3313 | 27 (≈ 7.92 µg/mL) | 852 (≈ 250 µg/mL) | 27 (≈ 7.92 µg/mL) | > 30 | 69
COc1ccccc1NC(=O)c1ccc2cc(O)ccc2c1 | 0.6039 | 27 (≈ 7.92 µg/mL) | 51 (≈ 15 µg/mL) | 27 (≈ 7.92 µg/mL) | > 30 | –
O=C(Nc1ccccc1Br)c1ccc2cc(O)ccc2c1 | 0.7486 | 175 (≈ 59.9 µg/mL) | 88 (≈ 30.1 µg/mL) | 23 (≈ 7.87 µg/mL) | > 30 | –
Cc1ccccc1NC(=O)c1ccc2cc(O)ccc2c1 | 0.369 | 29 (≈ 8.04 µg/mL) | 29 (≈ 8.04 µg/mL) | 29 (≈ 8.04 µg/mL) | > 30 | –
COc1cccc(NC(=O)c2ccc3cc(O)ccc3c2)c1 | 0.4463 | 27 (≈ 7.92 µg/mL) | 102 (≈ 29.9 µg/mL) | 27 (≈ 7.92 µg/mL) | > 30 | 62.2
O=C(Nc1cccc(Br)c1)c1ccc2cc(O)ccc2c1 | 0.8767 | 23 (≈ 7.87 µg/mL) | 175 (≈ 59.9 µg/mL) | 23 (≈ 7.87 µg/mL) | > 30 | 41.2
O=C(Nc1ccc(F)cc1)c1ccc2cc(O)ccc2c1 | 0.6726 | 28 (≈ 7.88 µg/mL) | 213 (≈ 59.9 µg/mL) | 53 (≈ 14.9 µg/mL) | – | –
O=C(Nc1ccc(Br)cc1)c1ccc2cc(O)ccc2c1 | 0.8884 | 23 (≈ 7.87 µg/mL) | 1460 (≈ 500 µg/mL) | 731 (≈ 250 µg/mL) | – | –
O=C(Nc1cccc(Cl)c1)c1ccc2cc(O)ccc2c1 | 0.7684 | 27 (≈ 8.04 µg/mL) | 101 (≈ 30.1 µg/mL) | 840 (≈ 250 µg/mL) | – | 46.5
O=C(Nc1ccccc1)c1ccc2cc(O)ccc2c1 | 0.6612 | 30 (≈ 7.9 µg/mL) | 57 (≈ 15 µg/mL) | 30 (≈ 7.9 µg/mL) | > 30 | –
O=C(Nc1ccc([N+](=O)[O-])cc1)c1ccc2cc(O)ccc2c1 | 0.5911 | 26 (≈ 8.02 µg/mL) | 49 (≈ 15.1 µg/mL) | 97 (≈ 29.9 µg/mL) | – | –
O=C(Nc1ccc(Cl)cc1)c1ccc2cc(O)ccc2c1 | 0.7947 | 27 (≈ 8.04 µg/mL) | 202 (≈ 60.1 µg/mL) | 50 (≈ 14.9 µg/mL) | > 30 | 43.8
O=C(Nc1ccccc1Cl)c1ccc2cc(O)ccc2c1 | 0.6777 | 27 (≈ 8.04 µg/mL) | 50 (≈ 14.9 µg/mL) | 840 (≈ 250 µg/mL) | > 30 | 38
O=C(Nc1ccccc1F)c1ccc2cc(O)ccc2c1 | 0.4921 | 107 (≈ 30.1 µg/mL) | 107 (≈ 30.1 µg/mL) | 53 (≈ 14.9 µg/mL) | – | –
O=C(Nc1cccc([N+](=O)[O-])c1)c1ccc2cc(O)ccc2c1 | 0.8533 | 26 (≈ 8.02 µg/mL) | 97 (≈ 29.9 µg/mL) | 26 (≈ 8.02 µg/mL) | > 30 | –
O=C(Nc1ccc(C(F)(F)F)cc1)c1ccc2cc(O)ccc2c1 | 1.0133 | 24 (≈ 7.95 µg/mL) | 91 (≈ 30.1 µg/mL) | 91 (≈ 30.1 µg/mL) | > 30 | –
O=C(Nc1ccccc1[N+](=O)[O-])c1ccc2cc(O)ccc2c1 | 0.8553 | 97 (≈ 29.9 µg/mL) | 195 (≈ 60.1 µg/mL) | 26 (≈ 8.02 µg/mL) | > 30 | –
Cc1cccc(NC(=O)c2ccc3cc(O)ccc3c2)c1 | 0.6086 | 29 (≈ 8.04 µg/mL) | 54 (≈ 15 µg/mL) | 29 (≈ 8.04 µg/mL) | > 30 | –
O=C(Nc1cccc(F)c1)c1ccc2cc(O)ccc2c1 | 0.5766 | 28 (≈ 7.88 µg/mL) | 53 (≈ 14.9 µg/mL) | 53 (≈ 14.9 µg/mL) | – | –
O=C(Nc1cccc(C(F)(F)F)c1)c1ccc2cc(O)ccc2c1 | 0.9558 | 24 (≈ 7.95 µg/mL) | 91 (≈ 30.1 µg/mL) | 24 (≈ 7.95 µg/mL) | > 30 | 42.9
CO[C@H]1/C=C/O[C@@]2(C)Oc3c(C)c(O)c4c(O)c(c(/C=N/N5CCN(C)CC5)c(O)c4c3C2=O)NC(=O)/C(C)=C\C=C\[C@H](C)[C@H](O)[C@@H](C)[C@@H](O)[C@@H](C)[C@H](OC(C)=O)[C@@H]1C [RIFAMPIN] | – | 10 (≈ 8.23 µg/mL) | 10 (≈ 8.23 µg/mL) | 109 (≈ 89.7 µg/mL) | – | –
O=C(Nc1ccccc1C(F)(F)F)c1ccc2cc(O)ccc2c1 | 0.5623 | 91 (≈ 30.1 µg/mL) | 181 (≈ 60 µg/mL) | 377 (≈ 125 µg/mL) | – | –
